Assay results published in patent publication US20220135666A1, “TREATMENT OF A DISEASE OF THE GASTROINTESTINAL TRACT WITH A S1P MODULATOR” (Progenity, Inc., priority 2017, published 2022).

Experiments:
[1] = Tissue, plasma and GI content pharmacokinetics of tacrolimus, oral vs intra-cecal ingestible device (Example 10); set-up: species or system Yorkshire-Cross farm swine; conditions: in vivo
Description: The primary objective of this study was to compare the tissue, plasma, rectal sample, and GI content pharmacokinetics of tacrolimus through oral versus intra-cecal ingestible device delivery in normal Yorkshire-Cross farm swine.
(§1) No further randomization procedure was employed.
Animals in Group 1 received an ingestible device containing 0.8 mL of vehicle solution (80% alcohol, 20% HCO-60). Animals in Group 2 received orally […] liquid formulation of tacrolimus at 4 mg/0.8 mL per animal (Prograf: 5 mg/mL). Animals in Group 3 received intracecally an ingestible device containing tacrolimus at 1 mg in 0.8 mL per ingestible device. […]
Approximately 200˜400 mg of rectal content were collected, if available, with a fecal swab (Copan Diagnostics Nylon Flocked Dry Swabs, 502CS01). The fecal swab was pre-weighed and weighed after collection in the collection tube (Sterile Tube and Cap No Media, PFPM913S), and the sample weight was recorded. […]
For tissue necropsy, small intestine fluid and cecal fluid were collected separately from all the animals into two separate square plastic bottles, and stored at −20° C. The length and diameter of the cecum and the colon was measured from one animal in each group and recorded for reference. […] All samples were weighed, and the tissue sample weights were recorded. […]

[2] = Pharmacokinetic study of oral vs intra-cecal administration of tacrolimus (Example 13); set-up: species or system Yorkshire-Cross farm swine; conditions: female, Yorkshire-Cross, in vivo, 0.09 mg/kg
Source text: as §1

level detected in tissue [1]: No measurable level
Ratio Tissue (mean) (ng/g)/AUG(0-12 hr) (ng · hr/mL) ([2]; pig, 12 h): 0
Trough (12 hr) ([2]; pig, 12 h): 0.568 ng/mL
Kp at 12 h ([2]; swine): 0
Ratio Tissue (mean) (ng/g)/Tough(12 hr)(ng/mL) ([2]; swine, 12 h): 0
SMILES: C=CC[C@@H]1/C=C(\C)C[C@H](C)C[C@H](OC)[C@H]2O[C@@](O)(C(=O)C(=O)N3CCCC[C@H]3C(=O)O[C@H](/C(C)=C/[C@@H]3CC[C@@H](O)[C@H](OC)C3)[C@H](C)[C@@H](O)CC1=O)[C@H](C)C[C@@H]2OC [tacrolimus]
